# Like-named read-outs stand apart in the source and are kept apart here.
# Key:
# Test in all cases: biochemical
# Set-up in all cases: Reaction Biology 371-kinase panel at Km ATP, per cent enzyme activity relative to DMSO, single dose in duplicate
# Settings in all cases: duplicate measurements, Km ATP
# AXL = AXL (Homo sapiens, UniProt P30530)
# Procedure, shortened: (§1)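 First, kinases from a 371-member panel were exposed in vitro to 300 nM inhibitor. Next, % enzyme activity versus DMSO was computed. Finally, IC50s were derived by sigmoidal dose-response fitting with variable slope and a zero bottom constraint.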
# Aurora A = molecular target: T1, Aurora A (Homo sapiens, UniProt O14965)
# T1 construct: gene AURKA
# T1 sequence (O14965 1-403): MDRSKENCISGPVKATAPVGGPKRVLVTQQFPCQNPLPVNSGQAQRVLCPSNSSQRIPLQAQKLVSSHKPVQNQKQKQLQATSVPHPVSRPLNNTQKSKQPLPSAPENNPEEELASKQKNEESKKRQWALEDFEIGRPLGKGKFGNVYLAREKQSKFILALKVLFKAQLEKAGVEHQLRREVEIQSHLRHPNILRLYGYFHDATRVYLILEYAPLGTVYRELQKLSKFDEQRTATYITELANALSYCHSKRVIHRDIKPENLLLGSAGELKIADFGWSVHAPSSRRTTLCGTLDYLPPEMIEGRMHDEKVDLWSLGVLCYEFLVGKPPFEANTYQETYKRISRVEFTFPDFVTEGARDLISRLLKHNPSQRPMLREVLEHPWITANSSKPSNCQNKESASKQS
# Procedure, shortened: as §1
# BRAF = BRAF (Homo sapiens, UniProt P15056)
# Procedure, shortened: as §1
# GRK5 = GRK5 (Homo sapiens, UniProt P34947)
# Procedure, shortened: as §1
# HIPK4 = HIPK4 (Homo sapiens, UniProt Q8NE63)
# Procedure, shortened: as §1
# KSR2 = KSR2 (Homo sapiens, UniProt Q6VAB6)
# Procedure, shortened: as §1
# MAK = MAK (Homo sapiens, UniProt P20794)
# Procedure, shortened: as §1
# MASTL = MASTL (Homo sapiens, UniProt Q96GX5)
# Procedure, shortened: as §1
# MEKK1 = molecular target: T2, MEKK1 (Homo sapiens, UniProt Q13233)
# T2 construct: gene MAP3K1
# Procedure, shortened: as §1
# MEKK2 = molecular target: T3, MEKK2 (Homo sapiens, UniProt Q9Y2U5)
# T3 construct: gene MAP3K2
# Procedure, shortened: as §1
# MNK2 = molecular target: T4, MNK2 (Homo sapiens, UniProt Q9HBH9)
# T4 construct: gene MKNK2
# Procedure, shortened: as §1
# NEK7 = NEK7 (Homo sapiens, UniProt Q8TDX7)
# Procedure, shortened: as §1
# PKCg = molecular target: T5, PKCg (Homo sapiens, UniProt P05129)
# T5 construct: gene PRKCG
# Procedure, shortened: as §1
# PKCnu/PRKD3 = PKCnu/PRKD3 (Homo sapiens, UniProt O94806)
# Procedure, shortened: as §1
# RIPK4 = RIPK4 (Homo sapiens, UniProt P57078)
# Procedure, shortened: as §1
# SNRK = SNRK (Homo sapiens, UniProt Q9NRH2)
# Procedure, shortened: as §1
# TXK = TXK (Homo sapiens, UniProt P42681)
# Procedure, shortened: as §1
# [1] = read-out: % Enzyme Activity (relative to DMSO controls) / TP-0005801 (0.3µM) / Data 1
# [2] = read-out: % Enzyme Activity (relative to DMSO controls) / TP-0005801 (0.3µM) / Data 2
# T3 sequence (Q9Y2U5 whole entry): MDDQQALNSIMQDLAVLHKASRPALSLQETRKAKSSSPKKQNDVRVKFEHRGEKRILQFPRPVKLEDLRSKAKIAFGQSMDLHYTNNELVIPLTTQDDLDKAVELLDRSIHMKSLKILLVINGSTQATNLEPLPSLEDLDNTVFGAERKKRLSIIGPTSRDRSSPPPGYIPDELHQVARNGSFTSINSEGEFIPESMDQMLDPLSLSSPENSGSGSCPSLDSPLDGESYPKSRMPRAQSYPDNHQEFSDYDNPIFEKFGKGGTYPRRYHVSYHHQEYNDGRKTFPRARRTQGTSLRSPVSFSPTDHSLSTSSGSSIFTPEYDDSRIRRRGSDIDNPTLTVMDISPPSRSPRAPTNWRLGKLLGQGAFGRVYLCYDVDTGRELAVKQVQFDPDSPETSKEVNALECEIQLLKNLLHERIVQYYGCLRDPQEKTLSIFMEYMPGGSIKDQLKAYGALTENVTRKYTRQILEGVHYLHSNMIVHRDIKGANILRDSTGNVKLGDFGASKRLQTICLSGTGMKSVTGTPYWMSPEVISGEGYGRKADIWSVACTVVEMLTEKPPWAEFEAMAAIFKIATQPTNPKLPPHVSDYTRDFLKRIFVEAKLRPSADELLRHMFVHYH
# T4 sequence (Q9HBH9 whole entry): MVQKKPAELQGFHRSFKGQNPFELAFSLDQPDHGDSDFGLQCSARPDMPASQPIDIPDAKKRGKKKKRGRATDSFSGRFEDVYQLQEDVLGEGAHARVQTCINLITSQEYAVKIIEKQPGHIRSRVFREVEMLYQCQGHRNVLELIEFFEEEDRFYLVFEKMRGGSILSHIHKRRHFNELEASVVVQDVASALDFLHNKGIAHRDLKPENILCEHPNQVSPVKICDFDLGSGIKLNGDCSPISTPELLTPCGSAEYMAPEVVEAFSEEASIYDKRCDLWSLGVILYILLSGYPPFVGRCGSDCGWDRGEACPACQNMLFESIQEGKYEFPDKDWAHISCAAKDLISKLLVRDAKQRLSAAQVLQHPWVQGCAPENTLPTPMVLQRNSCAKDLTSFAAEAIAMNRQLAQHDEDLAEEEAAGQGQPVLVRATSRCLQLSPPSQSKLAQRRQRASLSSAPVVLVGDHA
# Chain of AXL (P30530 whole entry): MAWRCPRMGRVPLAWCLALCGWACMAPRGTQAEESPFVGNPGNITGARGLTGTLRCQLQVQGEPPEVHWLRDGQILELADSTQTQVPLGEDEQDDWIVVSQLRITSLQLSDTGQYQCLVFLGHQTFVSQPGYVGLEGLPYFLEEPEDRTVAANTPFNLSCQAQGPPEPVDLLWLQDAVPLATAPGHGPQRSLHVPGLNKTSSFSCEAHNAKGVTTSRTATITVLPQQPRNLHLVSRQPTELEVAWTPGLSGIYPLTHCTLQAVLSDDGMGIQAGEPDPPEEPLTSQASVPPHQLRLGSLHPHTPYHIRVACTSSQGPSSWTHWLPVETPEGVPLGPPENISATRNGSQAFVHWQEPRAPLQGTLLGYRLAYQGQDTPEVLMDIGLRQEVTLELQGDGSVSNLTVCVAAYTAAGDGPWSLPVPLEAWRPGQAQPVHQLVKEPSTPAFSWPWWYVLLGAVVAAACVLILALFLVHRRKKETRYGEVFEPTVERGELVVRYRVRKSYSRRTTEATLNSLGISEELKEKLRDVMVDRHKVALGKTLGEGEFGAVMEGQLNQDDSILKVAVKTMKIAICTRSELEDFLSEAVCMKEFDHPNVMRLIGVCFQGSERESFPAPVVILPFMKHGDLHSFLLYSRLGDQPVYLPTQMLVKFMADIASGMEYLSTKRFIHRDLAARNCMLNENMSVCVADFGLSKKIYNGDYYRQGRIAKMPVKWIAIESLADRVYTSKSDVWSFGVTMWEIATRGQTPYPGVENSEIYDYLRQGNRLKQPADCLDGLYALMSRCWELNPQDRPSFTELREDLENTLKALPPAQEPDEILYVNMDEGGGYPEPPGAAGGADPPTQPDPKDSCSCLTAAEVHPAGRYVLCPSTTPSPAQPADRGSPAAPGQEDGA
# Chain of HIPK4 (Q8NE63 whole entry): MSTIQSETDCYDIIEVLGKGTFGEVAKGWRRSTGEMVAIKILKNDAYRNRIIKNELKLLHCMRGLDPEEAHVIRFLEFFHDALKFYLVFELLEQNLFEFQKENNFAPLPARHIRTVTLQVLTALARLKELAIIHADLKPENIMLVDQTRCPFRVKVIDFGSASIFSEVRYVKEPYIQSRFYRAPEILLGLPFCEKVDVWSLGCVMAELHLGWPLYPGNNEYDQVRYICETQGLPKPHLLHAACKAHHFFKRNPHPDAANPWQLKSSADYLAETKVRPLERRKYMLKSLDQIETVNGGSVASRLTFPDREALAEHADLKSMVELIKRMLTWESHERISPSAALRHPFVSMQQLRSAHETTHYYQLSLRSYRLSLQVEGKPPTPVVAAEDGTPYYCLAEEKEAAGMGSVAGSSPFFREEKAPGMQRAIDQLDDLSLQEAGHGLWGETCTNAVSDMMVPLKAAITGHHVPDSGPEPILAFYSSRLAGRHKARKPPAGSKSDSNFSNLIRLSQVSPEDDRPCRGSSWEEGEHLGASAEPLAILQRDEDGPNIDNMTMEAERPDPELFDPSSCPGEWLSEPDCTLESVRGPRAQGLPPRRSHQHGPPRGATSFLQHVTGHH
# Chain of TXK (P42681 whole entry): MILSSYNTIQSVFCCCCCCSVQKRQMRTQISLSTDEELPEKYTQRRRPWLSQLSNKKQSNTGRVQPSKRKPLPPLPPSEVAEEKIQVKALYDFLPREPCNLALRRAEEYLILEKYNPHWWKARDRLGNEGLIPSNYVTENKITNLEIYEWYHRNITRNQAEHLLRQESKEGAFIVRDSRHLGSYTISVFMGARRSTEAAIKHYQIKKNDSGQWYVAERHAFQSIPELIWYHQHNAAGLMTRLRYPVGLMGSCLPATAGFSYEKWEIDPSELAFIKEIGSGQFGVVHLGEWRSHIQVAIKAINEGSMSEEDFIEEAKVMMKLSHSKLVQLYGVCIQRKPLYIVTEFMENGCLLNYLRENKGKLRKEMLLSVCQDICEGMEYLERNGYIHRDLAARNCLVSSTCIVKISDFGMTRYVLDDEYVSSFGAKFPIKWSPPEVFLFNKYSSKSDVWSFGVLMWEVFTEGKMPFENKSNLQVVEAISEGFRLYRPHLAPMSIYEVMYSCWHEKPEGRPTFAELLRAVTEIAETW
# Chain of KSR2 (Q6VAB6 whole entry): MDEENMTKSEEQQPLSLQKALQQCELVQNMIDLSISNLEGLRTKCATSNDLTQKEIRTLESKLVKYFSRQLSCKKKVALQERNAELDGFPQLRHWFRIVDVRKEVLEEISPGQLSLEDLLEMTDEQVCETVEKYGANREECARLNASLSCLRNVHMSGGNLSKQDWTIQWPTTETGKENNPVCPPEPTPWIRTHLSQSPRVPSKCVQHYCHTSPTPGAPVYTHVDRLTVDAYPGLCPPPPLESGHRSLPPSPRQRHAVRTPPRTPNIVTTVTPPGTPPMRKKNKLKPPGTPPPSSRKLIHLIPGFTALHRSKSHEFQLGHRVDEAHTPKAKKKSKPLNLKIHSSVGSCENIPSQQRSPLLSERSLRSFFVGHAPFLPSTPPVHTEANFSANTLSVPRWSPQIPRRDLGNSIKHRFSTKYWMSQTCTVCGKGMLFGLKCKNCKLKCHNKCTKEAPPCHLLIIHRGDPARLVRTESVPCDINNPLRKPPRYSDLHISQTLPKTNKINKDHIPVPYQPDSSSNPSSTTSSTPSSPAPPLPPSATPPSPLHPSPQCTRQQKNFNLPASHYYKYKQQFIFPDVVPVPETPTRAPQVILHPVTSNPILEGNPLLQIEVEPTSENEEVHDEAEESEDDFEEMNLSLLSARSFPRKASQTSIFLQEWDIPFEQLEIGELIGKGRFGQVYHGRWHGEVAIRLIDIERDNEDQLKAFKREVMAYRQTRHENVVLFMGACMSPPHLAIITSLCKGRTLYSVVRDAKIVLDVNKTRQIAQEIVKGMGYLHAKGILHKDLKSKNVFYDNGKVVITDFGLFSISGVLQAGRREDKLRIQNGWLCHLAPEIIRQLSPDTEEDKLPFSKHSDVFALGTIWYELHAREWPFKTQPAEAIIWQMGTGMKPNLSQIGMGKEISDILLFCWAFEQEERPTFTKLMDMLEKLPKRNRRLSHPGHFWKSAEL
smiles,measurement,setting,value
COc1cc(N2CCN(C)CC2)c(C)cc1Nc1ncc(Br)c(Nc2cccnc2N(C)C)n1 [TP-5801],remaining activity at 0.3 µM,AXL; [1],89.2%
same,remaining activity at 0.3 µM,AXL; [2],86.3%
same,remaining activity at 0.3 µM,Aurora A; [1],101%
same,remaining activity at 0.3 µM,Aurora A; [2],99.6%
same,remaining activity at 0.3 µM,BRAF; [1],87.3%
same,remaining activity at 0.3 µM,BRAF; [2],85.1%
same,remaining activity at 0.3 µM,GRK5; [1],92%
same,remaining activity at 0.3 µM,GRK5; [2],89.8%
same,remaining activity at 0.3 µM,HIPK4; [1],79.6%
same,remaining activity at 0.3 µM,HIPK4; [2],78.6%
same,remaining activity at 0.3 µM,KSR2; [1],96.9%
same,remaining activity at 0.3 µM,KSR2; [2],94.2%
same,remaining activity at 0.3 µM,MAK; [1],98.4%
same,remaining activity at 0.3 µM,MAK; [2],94.1%
same,remaining activity at 0.3 µM,MASTL; [1],97%
same,remaining activity at 0.3 µM,MASTL; [2],96.1%
same,remaining activity at 0.3 µM,MEKK1; [1],111%
same,remaining activity at 0.3 µM,MEKK1; [2],109%
same,remaining activity at 0.3 µM,MEKK2; [1],86.8%
same,remaining activity at 0.3 µM,MEKK2; [2],81%
same,remaining activity at 0.3 µM,MNK2; [1],89.8%
same,remaining activity at 0.3 µM,MNK2; [2],89%
same,remaining activity at 0.3 µM,NEK7; [1],90.2%
same,remaining activity at 0.3 µM,NEK7; [2],89.5%
same,remaining activity at 0.3 µM,PKCg; [1],115%
same,remaining activity at 0.3 µM,PKCg; [2],107%
same,remaining activity at 0.3 µM,PKCnu/PRKD3; [1],55.8%
same,remaining activity at 0.3 µM,PKCnu/PRKD3; [2],55.5%
same,remaining activity at 0.3 µM,RIPK4; [1],117%
same,remaining activity at 0.3 µM,RIPK4; [2],108%
same,remaining activity at 0.3 µM,SNRK; [1],98.8%
same,remaining activity at 0.3 µM,SNRK; [2],98.6%
same,remaining activity at 0.3 µM,TXK; [1],114%
same,remaining activity at 0.3 µM,TXK; [2],112%

# From PMC8429728, “TNK1 is a ubiquitin-binding and 14-3-3-regulated kinase that can be targeted to block tumor growth” (Nature Communications, 2021)
